Assay results as given in ChEMBL document CHEMBL1132323, “Anti-Helicobacter pylori agents. 3. 2-[(Arylalkyl)guanidino]-4-furylthiazoles” (1999).
≈ marks a conversion by molar mass, not a printed value.

Experiments:
[1] = system: Helicobacter pylori; assay: Minimum inhibitory concentration that inhibited macroscopic colony growth of Helicobacter pylori; assay type: functional
[2] = biological target: Histamine H2 receptor (Cavia porcellus) (UniProt P47747); assay: Histamine H2 receptor antagonism in isolated guinea pig right atrium at concentration of 1*10e-6 g/mL of histamine hydrochloride; assay type: functional, tissue-based; settings: Cardiac atrium
[3] = system: Rattus norvegicus; assay: Inhibition of histamine stimulated gastric acid secretion in lumen perfused stomach of anesthetized rats at 1 mg/kg i.v. dose; assay type: functional; settings: route intravenous
[4] = system: Campylobacter jejuni; assay: Antimicrobial activity against Campylobacter jejuni; assay type: functional
[5] = system: Neisseria gonorrhoeae; assay: Antimicrobial activity against Neisseria gonorrhoeae; assay type: functional
[6] = system: Clostridium perfringens; assay: (§1) Antimicrobial activity against Clostridium perfringens; assay type: functional
[7] = system: Helicobacter pylori; assay: Antimicrobial activity against Helicobacter pylori; assay type: functional
[8] = system: Bacteroides fragilis; assay: Antimicrobial activity against Bacteroides fragilis; assay type: functional
[9] = system: Clostridioides difficile; assay: (§2) Antimicrobial activity against Clostridium difficile; assay type: functional
[10] = system: Neisseria meningitidis; assay: Antimicrobial activity against Neisseria meningitidis; assay type: functional
[11] = system: Clostridioides difficile; assay: as §2; assay type: functional, organism-based
[12] = system: Clostridium perfringens; assay: as §1; assay type: functional, organism-based

Chain of Histamine H2 receptor (Cavia porcellus) (P47747 whole entry, the tested form may be a part): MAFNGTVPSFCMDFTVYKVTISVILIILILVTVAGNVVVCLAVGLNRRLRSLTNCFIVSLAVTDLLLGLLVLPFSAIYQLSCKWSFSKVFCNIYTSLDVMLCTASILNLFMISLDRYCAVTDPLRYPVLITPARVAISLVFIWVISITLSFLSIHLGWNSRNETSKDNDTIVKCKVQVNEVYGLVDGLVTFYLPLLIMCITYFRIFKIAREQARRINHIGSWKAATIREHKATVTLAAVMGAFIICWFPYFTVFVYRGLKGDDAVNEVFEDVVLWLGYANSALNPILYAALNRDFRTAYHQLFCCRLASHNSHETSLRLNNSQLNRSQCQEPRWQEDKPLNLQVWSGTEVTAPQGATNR

Molecule | MIC [1] | inhibition [2] | other results
CC(=O)NCc1ccc(-c2csc(NC(=N)NCCc3ccccc3N)n2)o1 | 1.01 µg/mL (≈ 2.53 µM) | – | –
CC(=O)NCc1ccc(-c2csc(NC(=N)NCCc3cccs3)n2)o1 | 0.112 µg/mL (≈ 0.288 µM) | 83% | inhibition in vivo at 1 mg/kg [3]: 21%
Cc1ncc([N+](=O)[O-])n1CCO [METRONIDAZOLE] | 5.4 µg/mL (≈ 31.6 µM) | – | –
COc1ccccc1CC/N=C(\N)Nc1nc(-c2cc(C)c(CNC(C)=O)o2)cs1 | 0.03 µg/mL (≈ 0.0702 µM) | 0% | –
CC(=O)NCc1ccc(-c2csc(NC(=N)NCc3ccccc3)n2)o1 | – | 35% | –
CC1(C)S[C@@H]2[C@H](NC(=O)[C@H](N)c3ccc(O)cc3)C(=O)N2[C@H]1C(=O)O [AMOXICILLIN] | – | – | MIC [4]: 2.2 µg/mL (≈ 6.02 µM); MIC [5]: 7.7 µg/mL (≈ 21.1 µM); MIC [6]: 0.027 µg/mL (≈ 0.0739 µM); MIC [7]: 0.021 µg/mL (≈ 0.0575 µM); MIC [8]: 2.1 µg/mL (≈ 5.75 µM); MIC [9]: 0.28 µg/mL (≈ 0.766 µM); MIC [10]: 0.056 µg/mL (≈ 0.153 µM)
CC(=O)NCc1ccc(-c2csc(NC(=N)NCc3ccccc3Cl)n2)o1 | – | 50% | –
CC(=O)NCc1ccc(-c2csc(NC(=N)NCCc3ccccc3NC(C)=O)n2)o1 | 4.1 µg/mL (≈ 9.31 µM) | – | –
COc1ccccc1CC/N=C(\N)Nc1nc(-c2cc(CNC(C)=O)co2)cs1 | 2.21 µg/mL (≈ 5.34 µM) | – | –
CC(=O)NCc1ccc(-c2csc(NC(=N)NCc3ccco3)n2)o1 | – | 46% | –
CC(=O)NCc1ccc(-c2csc(NC(=N)NCc3ccccc3O)n2)o1 | 5.8 µg/mL (≈ 15 µM) | – | –
CN/C(=N\CCSCc1nc[nH]c1C)NC#N [CIMETIDINE] | 1130 µg/mL (≈ 4480 µM) | – | inhibition in vivo at 1 mg/kg [3]: 53%
CC(=O)NCc1ccc(-c2csc(NC(=N)NCCNc3ccccc3)n2)o1 | 1.79 µg/mL (≈ 4.49 µM) | – | –
COc1ccccc1OCC/N=C(\N)Nc1nc(-c2ccc(CNC(C)=O)o2)cs1 | 2.5 µg/mL (≈ 5.82 µM) | – | –
(2,5-Dihydroxy-4,7-dioxo-[1,3,2]dioxabismepan-5-yl)-acetic acid | 18 µg/mL | – | –
CC(=O)NCc1ccc(-c2csc(NC(=N)NCCc3ccncc3)n2)o1 | 1.92 µg/mL (≈ 4.99 µM) | – | –
COc1ccc(CC/N=C(\N)Nc2nc(-c3ccc(CNC(C)=O)o3)cs2)cc1 | 0.9 µg/mL (≈ 2.18 µM) | 27% | inhibition in vivo at 1 mg/kg [3]: 5%
CCOc1ccccc1C/N=C(\N)Nc1nc(-c2ccc(CNC(C)=O)o2)cs1 | – | 42% | –

Molecule | MIC [1] | inhibition [2] | other results
BISMUTH SUBSALICYLATE | – | – | MIC [4]: 7.4 µg/mL; MIC [5]: 4.7 µg/mL; MIC [7]: 8.7 µg/mL; MIC [8]: 50 µg/mL; MIC [11]: 50 µg/mL; MIC [12]: > 100 µg/mL; MIC [10]: 12.5 µg/mL
CC(=O)NCc1ccc(-c2csc(NC(=N)NCCc3ccccn3)n2)o1 | 0.73 µg/mL (≈ 1.9 µM) | 0% | –
COc1cccc(C/N=C(\N)Nc2nc(-c3ccc(CNC(C)=O)o3)cs2)c1 | – | 28% | –
CC(=O)NCc1ccc(-c2csc(NC(=N)NCCCc3ccccc3)n2)o1 | – | 40% | –
CC(=O)NCc1ccc(-c2csc(NC(=N)NCCc3c[nH]cn3)n2)o1 | 31 µg/mL (≈ 83 µM) | – | –
COc1ccccc1/N=C(\N)Nc1nc(-c2ccc(CNC(C)=O)o2)cs1 | 0.24 µg/mL (≈ 0.623 µM) | – | –
CC(=O)NCc1ccc(-c2csc(NC(=N)NCCc3ccccc3)n2)o1 | 0.13 µg/mL (≈ 0.339 µM) | 71% | inhibition in vivo at 1 mg/kg [3]: 24%
CC(=O)NCc1ccc(-c2csc(NC(=N)NCc3ccccc3C)n2)o1 | – | 88% | –
COc1ccccc1CC/N=C(\N)Nc1nc(-c2cc(CNC(C)=O)c(C)o2)cs1 | 0.046 µg/mL (≈ 0.108 µM) | 0% | MIC [4]: 23 µg/mL (≈ 53.8 µM); MIC [5]: > 100 µg/mL; MIC [6]: > 100 µg/mL; MIC [8]: > 100 µg/mL; MIC [9]: > 100 µg/mL; MIC [10]: > 100 µg/mL
CC[C@H]1OC(=O)[C@H](C)[C@@H](O[C@H]2C[C@@](C)(OC)[C@@H](O)[C@H](C)O2)[C@H](C)[C@@H](O[C@@H]2O[C@H](C)C[C@H](N(C)C)[C@H]2O)[C@](C)(OC)C[C@@H](C)C(=O)[C@H](C)[C@@H](O)[C@]1(C)O [CLARITHROMYCIN] | 0.057 µg/mL (≈ 0.0762 µM) | – | –
CC(=O)NCc1ccc(-c2csc(NC(=N)NCCc3ccccc3[N+](=O)[O-])n2)o1 | 0.14 µg/mL (≈ 0.327 µM) | 66% | inhibition in vivo at 1 mg/kg [3]: 39%
CC(=O)NCc1ccc(-c2csc(NC(=N)NCCc3ccco3)n2)o1 | 0.24 µg/mL (≈ 0.643 µM) | 63% | inhibition in vivo at 1 mg/kg [3]: 0%
COc1ccccc1CC/N=C(\N)Nc1nc(-c2cc(-c3ccccc3)c(CNC(C)=O)o2)cs1 | 9.47 µg/mL (≈ 19.3 µM) | – | –
COc1ccc(C/N=C(\N)Nc2nc(-c3ccc(CNC(C)=O)o3)cs2)cc1 | 0.28 µg/mL (≈ 0.701 µM) | – | –
COc1cccc(CC/N=C(\N)Nc2nc(-c3ccc(CNC(C)=O)o3)cs2)c1 | 0.36 µg/mL (≈ 0.871 µM) | 70% | inhibition in vivo at 1 mg/kg [3]: 65%
COc1ccccc1C/N=C(\N)Nc1nc(-c2ccc(CNC(C)=O)o2)cs1 | – | 26% | –
COc1ccccc1CC/N=C(\N)Nc1nc(-c2ccc(CNC(C)=O)o2)cs1 | 0.052 µg/mL (≈ 0.126 µM) | 67% | inhibition in vivo at 1 mg/kg [3]: 54%
